Laboratory results: ChEMBL document CHEMBL1140691, “New type of anti-diabetic compounds from the processed leaves of Hydrangea macrophylla var. thunbergii (Hydrangeae Dulcis Folium)” (2007)

Tests used:
Type in all cases: functional
[1] = system: 3T3-L1; test: Increase in triglyceride levels in mouse 3T3L1 cells at 30 uM
[2] = system: 3T3-L1; test: Increase in triglyceride levels in mouse 3T3L1 cells at 10 uM
[3] = system: 3T3-L1; test: Increase in triglyceride levels in mouse 3T3L1 cells at 100 uM
[4] = system: 3T3-L1; test: Increase in triglyceride levels in mouse 3T3L1 cells at 3 uM
[5] = system: 3T3-L1; test: Increase in triglyceride levels in mouse 3T3L1 cells at 1 uM
[6] = system: 3T3-L1; test: Decrease in IL6 gene expression in mouse 3T3L1 cells at 3 uM after 2 days relative to beta-actin mRNA expression
[7] = system: 3T3-L1; test: Increase in adiponectin release in mouse 3T3L1 cells at 30 uM on day 4 by ELISA
[8] = system: 3T3-L1; test: Increase in adiponectin gene expression in mouse 3T3L1 cells at 3 uM after 2 days relative to beta-actin mRNA expression
[9] = system: Mus musculus; test: Decrease in blood free fatty acid levels in KKAy mouse at 100 mg/kg, po after 1 week
[10] = system: Mus musculus; test: Effect on blood triglyceride levels in KKAy mouse at 100 mg/kg, po
[11] = system: 3T3-L1; test: Increase in adiponectin release in mouse 3T3L1 cells at 30 uM on day 6 by ELISA
[12] = system: 3T3-L1; test: Increase in GLUT4 gene expression in mouse 3T3L1 cells at 3 uM after 2 days relative to beta-actin mRNA expression
[13] = system: Mus musculus; test: Decrease in blood glucose levels in KKAy mouse at 100 mg/kg, po after 1 week
[14] = system: Mus musculus; test: Decrease in blood free fatty acid levels in KKAy mouse at 100 mg/kg, po
[15] = system: Mus musculus; test: Decrease in blood free fatty acid levels in KKAy mouse at 100 mg/kg, po after 2 weeks
[16] = system: 3T3-L1; test: Increase in 2-Deoxyglucose-uptake in mouse 3T3L1 cells at 3 uM by liquid scintillation counter
[17] = system: 3T3-L1; test: Increase in PPARgamma2 gene expression in mouse 3T3L1 cells at 3 uM after 2 days relative to beta-actin mRNA expression
[18] = system: Mus musculus; test: Decrease in blood glucose levels in KKAy mouse at 100 mg/kg, po
[19] = system: Mus musculus; test: Effect on blood triglyceride levels in KKAy mouse at 100 mg/kg, po after 2 weeks
[20] = system: Mus musculus; test: Effect on blood triglyceride levels in KKAy mouse at 100 mg/kg, po after 1 week
[21] = system: Mus musculus; test: Decrease in blood free fatty acid levels in KKAy mouse at 200 mg/kg, po after 1 week
[22] = system: Mus musculus; test: Decrease in blood free fatty acid levels in KKAy mouse at 200 mg/kg, po
[23] = system: 3T3-L1; test: Increase in adiponectin release in mouse 3T3L1 cells at 100 uM on day 4 by ELISA
[24] = system: 3T3-L1; test: Increase in adiponectin release in mouse 3T3L1 cells at 100 uM on day 6 by ELISA
[25] = system: 3T3-L1; test: Increase in GLUT4 gene expression in mouse 3T3L1 cells at 100 uM after 2 days relative to beta-actin mRNA expression
[26] = system: Mus musculus; test: Decrease in blood free fatty acid levels in KKAy mouse at 200 mg/kg, po after 2 weeks
[27] = system: 3T3-L1; test: Increase in adiponectin release in mouse 3T3L1 cells at 10 uM on day 6 by ELISA
[28] = system: Mus musculus; test: Decrease in blood glucose levels in KKAy mouse at 100 mg/kg, po after 2 weeks
[29] = system: Mus musculus; test: Effect on blood triglyceride levels in KKAy mouse at 200 mg/kg, po
[30] = system: 3T3-L1; test: Increase in adiponectin release in mouse 3T3L1 cells at 3 uM on day 4 by ELISA
[31] = system: 3T3-L1; test: Increase in adiponectin gene expression in mouse 3T3L1 cells at 30 uM after 2 days relative to beta-actin mRNA expression
[32] = system: 3T3-L1; test: Increase in GLUT4 gene expression in mouse 3T3L1 cells at 30 uM after 2 days relative to beta-actin mRNA expression
[33] = system: Mus musculus; test: Effect on blood triglyceride levels in KKAy mouse at 200 mg/kg, po after 1 week
[34] = system: 3T3-L1; test: Increase in 2-Deoxyglucose-uptake in mouse 3T3L1 cells at 30 uM by liquid scintillation counter
[35] = system: 3T3-L1; test: Increase in adiponectin release in mouse 3T3L1 cells at 3 uM on day 6 by ELISA
[36] = system: Mus musculus; test: Decrease in blood glucose levels in KKAy mouse at 200 mg/kg, po after 2 weeks
[37] = system: 3T3-L1; test: Decrease in IL6 gene expression in mouse 3T3L1 cells at 30 uM after 2 days relative to beta-actin mRNA expression
[38] = system: 3T3-L1; test: Increase in PPARgamma2 gene expression in mouse 3T3L1 cells at 100 uM after 2 days relative to beta-actin mRNA expression
[39] = system: 3T3-L1; test: Increase in adiponectin gene expression in mouse 3T3L1 cells at 100 uM after 2 days relative to beta-actin mRNA expression
[40] = system: 3T3-L1; test: Decrease in IL6 gene expression in mouse 3T3L1 cells at 100 uM after 2 days relative to beta-actin mRNA expression
[41] = system: 3T3-L1; test: Increase in 2-Deoxyglucose-uptake in mouse 3T3L1 cells at 100 uM by liquid scintillation counter
[42] = system: 3T3-L1; test: Increase in PPARgamma2 gene expression in mouse 3T3L1 cells at 30 uM after 2 days relative to beta-actin mRNA expression
[43] = system: Mus musculus; test: Decrease in blood glucose levels in KKAy mouse at 200 mg/kg, po
[44] = system: Mus musculus; test: Effect on blood triglyceride levels in KKAy mouse at 200 mg/kg, po after 2 weeks
[45] = system: Mus musculus; test: Decrease in blood glucose levels in KKAy mouse at 200 mg/kg, po after 1 week
[46] = system: 3T3-L1; test: Increase in 2-Deoxyglucose-uptake in mouse 3T3L1 cells at 1 uM by liquid scintillation counter
[47] = system: 3T3-L1; test: Increase in adiponectin release in mouse 3T3L1 cells at 10 uM on day 4 by ELISA
[48] = system: 3T3-L1; test: Increase in 2-Deoxyglucose-uptake in mouse 3T3L1 cells at 10 uM by liquid scintillation counter

SMILES: COc1ccc([C@H]2Cc3cccc(O[C@@H]4O[C@H](CO)[C@@H](O)[C@H](O)[C@H]4O)c3C(=O)O2)cc1O
- Activity [1]: -3%
- Activity [2]: -1.5%
- Activity [3]: 6.6%
- Activity [4]: 8.7%
- Activity [5]: 3.6%

SMILES: Cc1c(C)c2c(c(C)c1O)CCC(C)(COc1ccc(CC3SC(=O)NC3=O)cc1)O2 (configuration not stated) [TROGLITAZONE]
- Ratio [6]: 0.89
- Activity [7]: 43 ng/mL
- Ratio [8]: 3.01
- Activity [9]: 0.62 mEq/L
- Activity [10]: 329.4 mg/dL
- Activity [11]: 101.2 ng/mL
- Ratio [12]: 2.92
- Activity [13]: 293.3 mg/dL
- Activity [14]: 0.95 mEq/L
- Activity [15]: 0.8 mEq/L
- Activity [16]: 388%
- Ratio [17]: 1.09
- Activity [18]: 307.5 mg/dL
- Activity [2]: 39.6%
- Activity [4]: 40.5%
- Activity [5]: 33.8%
- Activity [19]: 464.6 mg/dL
- Activity [20]: 303.4 mg/dL

SMILES: COc1ccc([C@H]2Cc3cc(O)cc(O)c3C(=O)O2)cc1O [THUNBERGINOL E]
- Activity [1]: 3.4%
- Activity [2]: -8%
- Activity [3]: -4%
- Activity [4]: -7.5%
- Activity [5]: -6.3%

SMILES: O=c1oc(-c2ccc(O)c(O)c2)cc2cccc(O)c12 [THUNBERGINOL A]
- Activity [1]: 15.7%
- Activity [2]: 19.6%
- Activity [3]: -27.6%
- Activity [4]: 17.5%
- Activity [5]: 8%

SMILES: O=C1O/C(=C\c2ccc(O)c(O)c2)c2cccc(O)c21 [THUNBERGINOL F]
- Activity [1]: 8.3%
- Activity [2]: 6.2%
- Activity [3]: -54.8%
- Activity [4]: 6.2%
- Activity [5]: 2.1%

SMILES: COc1ccc([C@H]2Cc3cccc(O)c3C(=O)O2)cc1O [PHYLLODULCIN]
- Activity [1]: 23.8%
- Activity [2]: 9.8%
- Activity [3]: 20.3%
- Activity [4]: 12.8%
- Activity [5]: -0.7%

SMILES: O=C1OC(c2ccc(O)cc2)Cc2cc(O)cc(O)c21 (configuration not stated) [THUNBERGINOL C]
- Activity [1]: -17.6%
- Activity [2]: -11.1%
- Activity [3]: 1.4%
- Activity [4]: -7.5%
- Activity [5]: -9.3%

SMILES: O=c1oc(-c2ccc(O)c(O)c2)cc2cc(O)cc(O)c12 [THUNBERGINOL B]
- Activity [1]: 7.2%
- Activity [2]: -7.8%
- Activity [3]: 54.1%
- Activity [4]: -8%
- Activity [5]: -3.8%

SMILES: O=C1OC(c2ccc(O)cc2)Cc2cccc(O)c21 (configuration not stated) [HYDRANGENOL]
- Activity [21]: 0.81 mEq/L
- Activity [22]: 1.01 mEq/L
- Activity [23]: 33 ng/mL
- Activity [24]: 99.8 ng/mL
- Ratio [25]: 1.38
- Activity [7]: 27.4 ng/mL
- Activity [26]: 0.89 mEq/L
- Activity [27]: 84.2 ng/mL
- Activity [28]: 422.7 mg/dL
- Activity [29]: 362.8 mg/dL
- Activity [9]: 0.91 mEq/L
- Activity [30]: 22.3 ng/mL
- Ratio [31]: 1.98
- Activity [10]: 332.1 mg/dL
- Ratio [32]: 1.12
- Activity [11]: 94 ng/mL
- Activity [33]: 413.8 mg/dL
- Activity [34]: 245%
- Activity [13]: 389.1 mg/dL
- Activity [35]: 68.2 ng/mL
- Activity [36]: 411.2 mg/dL
- Ratio [37]: 0.78
- Ratio [38]: 2.65
- Activity [14]: 0.96 mEq/L
- Activity [15]: 1.07 mEq/L
- Ratio [39]: 2.46
- Activity [16]: 160%
- Ratio [40]: 0.51
- Activity [1]: 29.9%
- Activity [18]: 336.3 mg/dL
- Activity [41]: 302%
- Activity [2]: 17.7%
- Activity [3]: 41.3%
- Activity [4]: 19.2%
- Ratio [42]: 1.92
- Activity [43]: 336 mg/dL
- Activity [5]: 14.4%
- Activity [44]: 428.8 mg/dL
- Activity [45]: 397.5 mg/dL
- Activity [46]: 117%
- Activity [47]: 22.8 ng/mL
- Activity [19]: 483.9 mg/dL
- Activity [48]: 221%
- Activity [20]: 429.3 mg/dL

SMILES: O=C1OC(c2ccc(O)c(O)c2)Cc2cc(O)cc(O)c21 (configuration not stated) [THUNBERGINOL D]
- Activity [1]: 4%
- Activity [2]: -0.8%
- Activity [3]: 12.5%
- Activity [4]: 2.8%
- Activity [5]: -1.2%

SMILES: O=C(O)c1c(O)cccc1/C=C/c1ccc(O)cc1 [HYDRANGEAIC ACID]
- Activity [1]: 27.3%
- Activity [2]: 11.1%
- Activity [3]: 41.2%
- Activity [4]: 11.7%
- Activity [5]: 2.2%

SMILES: O=C1OC(c2ccc(O)cc2)Cc2cccc(O[C@@H]3O[C@H](CO)[C@@H](O)[C@H](O)[C@H]3O)c21 (some centres not stated)
- Activity [1]: 10.5%
- Activity [2]: 1.2%
- Activity [3]: 9.2%
- Activity [4]: 11.2%
- Activity [5]: 11.1%
